Test results reported in patent US20090023738A1, “DIAMINOPYRIMIDINES AS MODULATORS OF THE EP2 RECEPTOR” (priority 2007, published 2009).

Assays:
[1] = biological target: T1, EP2 subtype of the human PGE2 receptor (Homo sapiens, UniProt P43116); assay: cellular cAMP agonism assay; format: cell-based; details: without PGE2
T1 construct: host or cells: cells in a cell culture plate
Description: (§1) The binding of PGE2 to the EP2 subtype of the human PGE2 receptor induces activation of membrane-associated adenylate cyclases and leads to the formation of cAMP. In the presence of the phosphodiesterase inhibitor IBMX, cAMP which has accumulated due to this stimulation and been released by cell lysis is employed in a competitive detection method. In this assay, the cAMP in the lysate competes with cAMP-XL665 for binding of an Eu cryptate-labelled anti-cAMP antibody.
(§2) The two signals are measured in a suitable measuring instrument with a time lag, i.e. after the background fluorescence has declined.
1.2.2 Agonism Assay (Data for Each Well of a 384-Well Plate): […]
After incubation at room temperature (RT; volume: 15 μl) for 60 minutes, the reaction is then stopped by adding 5 μl of lysis buffer and incubated at RT for a further 20 min (volume: 20 μl). The cell lysate is then transferred into a measuring plate and measured in accordance with the manufacturer's information (cyclic AMP kit Cisbio International # 62AMPPEC).

[2] = biological target: T1, EP2 subtype of the human PGE2 receptor; assay: cAMP antagonism assay (EP2 receptor signal, HTRF cAMP detection); format: cell-based; details: in the presence of the agonist PGE2
Source text: 1. Detection of the Antagonism of the Human Prostaglandin E2 (Subtype EP2 Receptor Signal
as §1, §2
1.2.1 Antagonism Assay (Data for Each Well of a 384-Well plate): […]
After preincubation at room temperature (RT) for 30 minutes, 5 μl of a 4×PGE2 solution (11 nM) are added, and incubation is carried out in the presence of the agonist at RT for a further 60 min (volume: 20 μl) before the reaction is then stopped by adding 5 μl of lysis buffer and incubated at RT for a further 20 min (volume: ˜25 μl). The cell lysate is then transferred into a measuring plate and measured in accordance with the manufacturer's information (cyclic AMP kit Cisbio International # 62AMPPEC).

T1 sequence (P43116 whole entry): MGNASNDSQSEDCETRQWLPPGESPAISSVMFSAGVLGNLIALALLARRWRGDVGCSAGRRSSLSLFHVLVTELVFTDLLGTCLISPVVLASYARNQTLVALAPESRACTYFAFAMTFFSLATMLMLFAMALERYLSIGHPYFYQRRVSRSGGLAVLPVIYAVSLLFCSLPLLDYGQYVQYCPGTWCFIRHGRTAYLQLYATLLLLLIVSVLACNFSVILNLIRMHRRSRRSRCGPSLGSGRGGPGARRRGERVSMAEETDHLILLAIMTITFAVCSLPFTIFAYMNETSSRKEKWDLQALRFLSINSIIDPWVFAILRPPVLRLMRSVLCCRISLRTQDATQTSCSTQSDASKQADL

SMILES: Cc1[nH]c2c(F)ccc(C)c2c1CCNc1cc(NCc2cccnc2)ncn1 [Example 6, N-[2-(7-Fluoro-2,4-dimethyl-1H-indol-3-yl)ethyl]-N′-pyridin-3-ylmethylpyrimidine-4,6-diamine]
- effect in the cellular agonism test [1]: no inhibition
- IC50 [2]: 1600 nM

SMILES: Cc1[nH]c2c(F)ccc(C)c2c1CCNc1cc(NCc2ccccc2-c2ccccc2)ncn1 [Example 17, N-Biphenyl-2-ylmethyl-N′-[2-(7-fluoro-2,4-dimethyl-1H-indol-3-yl)ethyl]-pyrimidine-4,6-diamine]
- IC50 [2]: 1400 nM
